The EC50 is the concentration that produces a half-maximal response. A word on the IC50: it is the midpoint of a concentration-inhibition curve. Low readings indicate inhibition by little substance, high ones a need for much substance.

This test concerns CEM cells HIV-1 protection, formazan growth assay. Briefly: NCI AIDS Antiviral Assay. Conditions: for IC50: measured here: growth of uninfected CEM cells. The method in brief:
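Human CEM cells, uninfected and HIV-1-infected, exposed to five drug concentrations; growth measured by soluble formazan assay and scored as percent protection from infection, with protecting compounds retested.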

Calls of active or inactive are those of the source.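 How the source made its calls: active means compounds giving half or more protection of infected cells from virus-caused growth loss, again on retest; inactive means the rest.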 Where a SMILES comes first, the peptide text is derived from it. [ ]: non-standard residue; d: D form. The star is where a group is joined. Phe(4-NO2) = N[CH](Cc1ccc([N+](=O)[O-])cc1)C(=O)O; Boc = CC(C)(C)OC(=O)*; OtBu = CC(C)(C)O*

As to `CSC1=N/C(=C\c2ccc(Cl)cc2)C(=O)N1CN1CCOCC1`, the EC50 was over 200 µM and the IC50 was found to be 33.1 µM.

`Cc1c2n(c(=O)[nH]c1=O)C1OC(CO)C(O2)C1N=[N+]=[N-]` (centres undefined): the EC50 was 135 µM and the IC50 was over 200 µM.

`CC1(CO)CCCC1NCCNC1CCCC1(C)CO` (centres undefined): the EC50 is over 182 µM and the IC50 came to 107 µM.

Take `COC1/C=C/OC2(C)Oc3c(C)c(O)c4c(O)c(c(/C=N/N5CCOCC5)c(O)c4c3C2=O)NC(=O)C(C)=C/C=C/C(C)C(O)C(C)C(O)C(C)C(OC(C)=O)C1C` (centres undefined): the EC50 is over 200 µM and the IC50 is 35.5 µM.

With `CSSc1ccccc1`, the EC50 is over 20 µM and the concentration for half-maximal inhibition (IC50) was 7.76 µM.

As for `Cc1n[nH]c(=O)c2cc3oc4ccccc4c3n12`, the EC50 was over 107 µM and the IC50 was 32.4 µM.

As to `C=C(CCCC(C)OC(=O)NC(C)c1cccc2ccccc12)[Si](C)(C)C` (centres undefined), the EC50 was over 18.6 µM and the concentration for half-maximal inhibition (IC50) was over 18.6 µM.

For the compound `O=[N+]([O-])/C(Cl)=C(/C(Cl)=C(Cl)Cl)N1CCCCC1`, the EC50 was over 200 µM and the IC50 worked out at 12.3 µM.

With `O=C(NN1C(=O)C(Cl)C1c1ccc(O)cc1)c1ccccc1O` (centres undefined), the EC50 is over 21.9 µM and the IC50 is 10.2 µM.

Regarding `CCOC(=O)C1=C(SC)SC(C(=O)OCC)C2C=C(C)C=CN12` (centres undefined), the EC50 is over 102 µM and the IC50 amounted to 45.7 µM.

For the compound `CCC1CC2CC3c4[nH]c5ccc(OC)cc5c4CCN(C2)C13` (centres undefined), the result was inactive.

As to `COc1ccccc1N1C(=O)CSC1=Nc1ccccc1`, the EC50 is over 112 µM and the IC50 is over 112 µM.

On to `COc1c(-c2ccc3c(c2)OCO3)oc2cc3c(c(OC)c2c1=O)OCO3`, for which the EC50 is over 200 µM and the IC50 was over 200 µM.

Take `N#CCCN(CCC#N)c1ccc(/C=C2\N=C(c3cc([N+](=O)[O-])ccc3Cl)OC2=O)cc1`: the EC50 was over 2.34 µM and the IC50 is 0.575 µM.

With `CCOC(=O)/C(=C/c1ccc(N(C)C)cc1)C(=O)c1ccccc1`, the EC50 is over 8.51 µM and the IC50 is over 8.51 µM.

For the compound `O=c1c2ccccc2c2nccc3c4ccccc4n1c32`, the EC50 was over 37.2 µM and the IC50 is over 37.2 µM.

Consider `CCOC(=O)CSc1nc(N)c2c(-c3ccc(OC)c(OC)c3)c3c(nc2n1)CCCC3`, for which the EC50 was over 200 µM and the half-maximal inhibitory concentration (IC50) is over 200 µM.

For the compound `C[N+](C)(C)CCCC#CC[N+]1(C)CCOCC1`, the outcome was inactive.

As to `O=C(CCN1CCCC1)c1ccc(Oc2ccc(F)cc2)cc1`, the EC50 was over 200 µM and the IC50 came to 110 µM.

Consider `CC(=O)NC(CCC(=O)OC(C)(C)C)C(=O)NC(CCC(=O)OC(C)(C)C)C(=O)NC(Cc1ccc([N+](=O)[O-])cc1)C(=O)NC(CCCCNC(=O)OC(C)(C)C)C(=O)NC(CCCCNC(=O)OC(C)(C)C)C(=O)NCC(=O)O` (centres undefined) (Ac-E(OtBu)E(OtBu)[Phe(4-NO2)]K(Boc)K(Boc)G-OH; configuration not given here), for which the EC50 is over 200 µM and the half-maximal inhibitory concentration (IC50) is over 200 µM.

For `O=C(O)c1ccccc1C(=O)c1ccccc1`, the concentration for a half-maximal effect (EC50) is over 200 µM and the 50% inhibitory concentration (IC50) was over 200 µM.

As for `O=C(O)C1CC(C2CCCCN2)CN2CCCCC12` (centres undefined), the EC50 was over 200 µM and the IC50 was over 200 µM.

As to `CC(=O)N1C/C(=C\c2ccccc2)C(=O)/C(=C/c2ccccc2)C1`, the outcome was inactive.

Turning to `Nc1nc2c(c(-c3ccc(F)cc3)n1)COC/C2=C\c1ccc(F)cc1`, the EC50 was over 200 µM and the concentration for half-maximal inhibition (IC50) is 158 µM.

`Cc1cc2c(c(C(N)=O)c1C)-c1cc(Cl)cc(Cl)c1C2=O`: the EC50 was over 22.4 µM and the IC50 is over 22.4 µM.

As to `CC(C)(C)[C@H]1CO[C@]2(c3ccccc3)[C@@H]3C[C@@H]3C(=O)N12`, the result was inactive.

In the case of `Nc1nc(NC2C3CC4CC(C3)CC2C4)nc(-c2n[nH]c(=S)o2)n1` (centres undefined), the EC50 was over 55 µM and the IC50 amounted to 28.2 µM.

As to `CN(C)c1ccc(/C=C(\C#N)c2ccc(Cl)c(Cl)c2)cc1`, the EC50 is over 100 µM and the IC50 was 3.63 µM.

As to `CC1=C(C(=O)CC(=O)C(=O)Nc2ccccc2C(F)(F)F)Sc2ccccc2N1`, the outcome was inactive.

`CC(C)(C)c1cc(N=NC(=S)NCc2ccccc2)cc(C(C)(C)C)c1O`: the EC50 was over 7.08 µM and the IC50 is over 7.08 µM.

`CNc1ccc(Cl)cc1S(=O)(=O)c1ccccc1[N+](=O)[O-]`: the concentration giving a half-maximal response (EC50) is 0.562 µM and the 50% inhibitory concentration (IC50) stood at 741 µM.

On to `COc1ccc2c(O)c(Oc3ccc(Cl)cc3)c(=O)oc2c1`, for which the outcome was inactive.

Take `Nc1nc(SCc2ccccc2)c2ncn(CCO)c2n1`: the EC50 was over 200 µM and the IC50 is 191 µM.

In the case of `O=C1c2c(F)c(F)c(F)c(F)c2SC2=NCCN12`, the EC50 is over 20 µM and the concentration for half-maximal inhibition (IC50) was determined as 2 µM.

As for `Cc1ccc2ccc3ccc(C)nc3c2n1`, the EC50 is over 12 µM and the half-inhibitory concentration (IC50) was found to be 0.24 µM.

As to `Cc1ccc(S(=O)(=O)/C(C#N)=C/NC(=S)Nc2cc(Cl)ccc2Cl)cc1`, the result was inactive.

Consider `CCOC(=O)C1SC(=Nc2ccc(Cl)cc2C)N=C1C` (centres undefined), for which the EC50 was over 32.4 µM and the IC50 was over 32.4 µM.

As to `COC(=O)C1=C(N2CCCC2)C2c3ccccc3SC12C(=O)OC` (centres undefined), the half-maximal effective concentration (EC50) is 5.75 µM and the concentration for half-maximal inhibition (IC50) turned out to be 55 µM.

On to `Cc1ccc2[nH]c3c(ncc4[nH]c5ccccc5c43)c2c1`, for which the EC50 is over 19.1 µM and the concentration for half-maximal inhibition (IC50) stood at 3.89 µM.

In the case of `OCc1ccc(C2CC(c3ccco3)=NN2c2ccccc2)o1` (centres undefined), the EC50 is over 17 µM and the IC50 is over 17 µM.

`O=C(CCN1CCN(CCC(=O)c2ccccc2)CC1)c1ccccc1`: the EC50 is over 200 µM and the IC50 was 9.12 µM.

On to `Cc1nc(N)c(-c2ccccc2)s1`, for which the EC50 is over 135 µM and the half-maximal inhibitory concentration (IC50) is over 135 µM.

Regarding `NC(=Nc1ccccc1)N(c1ccccc1)c1nc(=S)ss1`, the EC50 is over 200 µM and the half-maximal inhibitory concentration (IC50) turned out to be 83.2 µM.

As to `CC1=C(C#N)C(=O)N(/N=C/c2ccc(Cl)cc2)C(=O)/C1=c1\o/c(=C2/C(=O)N(/N=C/c3ccc(Cl)cc3)C(=O)C(C#N)=C2C)c2nccnc12`, the EC50 was over 200 µM and the IC50 was found to be 110 µM.

As to `C/C(N)=C\c1nc(=O)ccs1`, the EC50 is over 178 µM and the IC50 is 129 µM.

For the compound `NC(Cn1ccc(=O)c(O)c1)C(=O)O` (centres undefined), the EC50 is over 200 µM and the IC50 came to 95.5 µM.

As for `CC(C)(O)CCC(O)[C@](C)(O)C1CCC2(O)C3=CC(=O)[C@@H]4C[C@@H](O)[C@@H](O)C[C@]4(C)C3CC[C@]12C` (some centres undefined), the result was inactive.

As for `N#CC1=C(N)N(/N=C/c2ccccc2)C(c2ccccc2)C1(C#N)C#N` (centres undefined), the EC50 was over 200 µM and the IC50 turned out to be 3.89 µM.

`COc1ccc(OC)c2c1-c1nnnn1CCC2(C)C`: the EC50 is 132 µM and the 50% inhibitory concentration (IC50) was over 200 µM.

`c1ccc(CCCC2Sc3cccc4cccc(c34)S2)cc1`: the EC50 was over 11.7 µM and the concentration for half-maximal inhibition (IC50) is over 11.7 µM.

`CC1(C)C2CC(c3ccncc3)ON2C(C)(C)N1O` (centres undefined): the EC50 was over 200 µM and the concentration for half-maximal inhibition (IC50) is over 200 µM.

Take `O=c1ccn(C/C=C/c2ccccc2)c(=S)n1C/C=C/c1ccccc1`: the outcome was inactive.

For `CCOC(=O)CCC1(C)OC[C@H]2OC(n3cc(C)c(=O)[nH]c3=O)C[C@H]2N1O` (some centres undefined), the EC50 was over 200 µM and the IC50 is over 200 µM.

As for `Cc1cnc(C)c(-c2cc3ccccc3[nH]2)n1`, the EC50 was over 32.4 µM and the half-inhibitory concentration (IC50) is over 32.4 µM.

For the compound `CC1=C(C(=O)O)N2C(=O)[C@@H](NC(=O)C(c3ccc(O)cc3)N3CSC(=S)N(C(C)C)C3)C2SC1` (some centres undefined), the EC50 is over 479 µM and the half-inhibitory concentration (IC50) came out at 269 µM.

`CCOC(=O)C1(Cc2ccccc2)Cc2ccccc2C1=O` (centres undefined): the EC50 is over 200 µM and the half-inhibitory concentration (IC50) amounted to 37.2 µM.

As to `CCOc1ccc(N=Cc2ccc3ccccc3n2)cc1`, the outcome was inactive.

Consider `CC1CC[C@@]2(O)C(CCCC2(C)C)[C@]1(C)CCc1ccoc1` (some centres undefined), for which the outcome was inactive.

`CC(=O)N1N(c2ccc([N+](=O)[O-])cc2)C(=O)C1(C)C`: the EC50 is over 200 µM and the IC50 was over 200 µM.

As for `N#C/C(=C\c1ccc[nH]1)C(=O)c1ccccc1`, the EC50 is over 309 µM and the concentration for half-maximal inhibition (IC50) was over 309 µM.

Consider `CCCCCCCCCCCCOP(=O)(O)OP(=O)(O)OCC1OC(n2cc(C)c(=O)[nH]c2=O)CC1O` (centres undefined), for which the EC50 is over 200 µM and the IC50 worked out at 102 µM.

For the compound `C=CCN1C(=O)CSC1=S`, the EC50 was over 288 µM and the IC50 amounted to 13.5 µM.

Take `COC(=O)C1(CCCCl)CCCN1C(=O)OC(C)(C)C` (centres undefined): the EC50 is over 200 µM and the IC50 is over 200 µM.

In the case of `C/C(=N\NC(=S)NCCCCNC(=S)N/N=C(\C)c1ccccn1)c1ccccc1`, the EC50 was over 200 µM and the IC50 was determined as 1.62 µM.

In the case of `O=[N+]([O-])c1ccc(N2N=NC3C4CCC(C4)C32)cc1` (centres undefined), the EC50 was over 95.5 µM and the half-inhibitory concentration (IC50) came to 43.7 µM.

In the case of `CC1(C)N([O-])[N+](=O)C1(C)O` (centres undefined), the EC50 was over 200 µM and the IC50 is over 200 µM.

As to `CCOP(=O)(OCC)c1cc(-c2ccccc2)ccc1N`, the EC50 was over 200 µM and the IC50 was over 200 µM.

Turning to `O=C(CCN1CCOCC1)c1ccc(Oc2ccc(F)cc2)cc1`, the outcome was inactive.

As to `O=C1CCN(CCC(F)(F)C(F)(F)C(F)(F)C(F)(F)C(F)(F)C(F)(F)F)C(=S)N1CCC(F)(F)C(F)(F)C(F)(F)C(F)(F)C(F)(F)C(F)(F)F`, the EC50 was over 16.6 µM and the 50% inhibitory concentration (IC50) is over 16.6 µM.

Turning to `COc1ccc2c(c1)C(=O)C13CC(C(=O)OCc4ccccc4)C(OC(C)=O)(CCC21)C3` (centres undefined), the EC50 is over 72.4 µM and the half-maximal inhibitory concentration (IC50) was over 72.4 µM.

For `C=CCNC(=O)ON1C(=O)CCC1=O`, the EC50 was over 1260 µM and the half-inhibitory concentration (IC50) was over 1260 µM.

In the case of `O=C(c1ccco1)N(Cc1ccco1)C(=S)Nc1ccccc1`, the EC50 was over 200 µM and the half-inhibitory concentration (IC50) came out at 12 µM.

With `Cn1c(CCC2(C)Cc3ccccc3C(=O)O2)cc2ccccc2c1=O` (centres undefined), the EC50 is over 200 µM and the IC50 amounted to 36.3 µM.

Values taken from PubChem BioAssay AID179 (DTP/NCI, 2004).
